According to paper PMC8670397 (Bioorganic & medicinal chemistry, 2020):
pKi: −log10 of the molar value. Blank lines part the entries; values can stand above or below the compound they belong to.

Experiments:
[1] = cited from earlier work
D2R = settings: similar to aripiprazole; cited from earlier work
5-HT7 receptor = 5-HT7 receptor (Homo sapiens, UniProt P34969)
5-HT1A receptor = 5-HT1A receptor (Homo sapiens, UniProt P08908)
D1 receptor = D1 receptor (Homo sapiens, UniProt P21728); assay: biochemical
Chain of D1 receptor (P21728 whole entry): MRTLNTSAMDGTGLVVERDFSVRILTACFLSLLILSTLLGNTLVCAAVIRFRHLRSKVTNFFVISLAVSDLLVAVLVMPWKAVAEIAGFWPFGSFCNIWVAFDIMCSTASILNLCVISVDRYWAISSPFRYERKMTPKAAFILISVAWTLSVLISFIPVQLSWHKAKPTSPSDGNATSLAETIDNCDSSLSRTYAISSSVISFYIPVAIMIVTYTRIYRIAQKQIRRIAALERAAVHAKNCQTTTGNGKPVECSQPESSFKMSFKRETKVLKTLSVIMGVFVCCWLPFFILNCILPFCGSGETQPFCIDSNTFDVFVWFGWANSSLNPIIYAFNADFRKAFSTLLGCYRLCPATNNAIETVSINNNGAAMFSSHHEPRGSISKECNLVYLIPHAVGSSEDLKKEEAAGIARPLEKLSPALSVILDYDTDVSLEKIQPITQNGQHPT

Chain of 5-HT7 receptor (P34969 whole entry): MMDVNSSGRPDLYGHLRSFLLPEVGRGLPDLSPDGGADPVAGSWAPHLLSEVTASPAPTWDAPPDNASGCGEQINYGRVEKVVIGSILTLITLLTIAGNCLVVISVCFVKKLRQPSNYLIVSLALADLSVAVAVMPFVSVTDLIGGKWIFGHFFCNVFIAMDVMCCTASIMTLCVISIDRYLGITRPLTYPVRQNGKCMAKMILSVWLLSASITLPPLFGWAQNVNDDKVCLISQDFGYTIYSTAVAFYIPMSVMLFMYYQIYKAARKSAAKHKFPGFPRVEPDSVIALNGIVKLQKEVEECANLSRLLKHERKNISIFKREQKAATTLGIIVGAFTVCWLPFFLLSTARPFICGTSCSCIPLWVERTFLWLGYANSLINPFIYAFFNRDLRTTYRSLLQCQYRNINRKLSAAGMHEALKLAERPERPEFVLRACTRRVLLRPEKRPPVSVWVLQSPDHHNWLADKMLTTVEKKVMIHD
Chain of 5-HT1A receptor (P08908 whole entry): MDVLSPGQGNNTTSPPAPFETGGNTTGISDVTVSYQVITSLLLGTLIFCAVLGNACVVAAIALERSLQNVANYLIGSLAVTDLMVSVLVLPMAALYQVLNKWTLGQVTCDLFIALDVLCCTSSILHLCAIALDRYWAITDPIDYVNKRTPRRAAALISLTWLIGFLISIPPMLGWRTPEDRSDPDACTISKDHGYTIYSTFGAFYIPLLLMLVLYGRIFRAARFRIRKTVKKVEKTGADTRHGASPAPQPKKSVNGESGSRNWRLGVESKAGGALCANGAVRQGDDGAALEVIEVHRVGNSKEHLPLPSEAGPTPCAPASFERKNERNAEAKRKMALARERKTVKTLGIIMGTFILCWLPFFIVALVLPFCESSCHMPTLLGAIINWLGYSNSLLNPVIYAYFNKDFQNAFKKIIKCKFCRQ

Structure (SMILES): Fc1ccc(CCCCN2CCN(c3ccccn3)CC2)cc1 [Compound 5, 1-(4-(4-fluorophenyl)butyl)-4-(pyridin-2-yl)piperazine]
blood brain barrier (BBB) permeability [1]: high
signaling at the D2R (D2R): activates both G-protein and β-arrestin signaling

mean pKi ± SEM 5-HT7 (5-HT7 receptor): 7.2 ± 0.1
Structure (SMILES): Cc1ccc(N2CCN(CCCCc3ccc(F)cc3)CC2)nc1 [Compound 9, 1-(4-(4-fluorophenyl)butyl)-4-(5-methylpyridin-2-yl)piperazine]

mean pKi ± SEM 5-HT1A (5-HT1A receptor): 6.1 ± 0.1
Structure (SMILES): O=C1c2ccc(F)cc2CC1CCN1CCCN(c2ccccn2)CC1 (stereo not drawn) [Compound 14]

mean pKi ± SEM 5-HT7 (5-HT7 receptor): 6.63 ± 0.09
pKi (D1 receptor): < 5.70
Structure (SMILES): Fc1ccc(CCCCN2CCN(c3cccnc3)CC2)cc1.O=C(O)C(=O)O [Compound 21, 1-(4-(4-fluorophenyl)butyl)-4-(pyridin-3-yl)piperazine oxalate]
